Reference: patent publication US20130303566A1, “METHOD FOR TREATING MACULAR DEGENERATION” (DAVID W. HILL, priority 2012, published 2013)

Assays:
damaged macular area = tested on: damaged macular area; set-up: species or system human; conditions: in vivo
patient with AMD = conditions: human, in vivo
Method: To test the hypothesis that vasodilators can successfully treat AMD, TriMix injectable blend was obtained containing, in 10 ml of water, 0.4 ml ethanol, 0.3 g papaverine hydrochloride, 0.02 g phentolamine mesylate and 200 mcg prostaglandin. E1 (PGE1 or “alprostadil”), with 0.01 ml benzyl alcohol. […] The following example explores the role of administering Trimix to a patient with AMD.
Initial doses were 1 mcg alprostadil, but were upped to 2 mcg of alprostadil for a period of time and then lowered to the original dose. Thus, on a daily basis, 0.85-0.10 mL of the above TriMix blend can be injected into the patient, delivering 1-2 mcg alprostadil, 0.1-0.2 mg phentolamine and 1.5-3.0 mg of papaverine.

patients with dry AMD = conditions: 60 mcg PGE1 as alprostadil, intravenous infusion daily for 15 days, 15 patients with dry AMD; cited from earlier work

| SMILES | effect on vision (damaged macular area) | tolerability of high doses (patient with AMD) | trial outcome (patients with dry AMD) |
| --- | --- | --- | --- |
| CC(=O)Nc1ccc(O)cc1 [acetaminophen] | cause the mask of the damaged macular area to appear colored, such as bright red, can cause misty vision |  |  |
| CCCCC[C@H](O)/C=C/[C@H]1[C@H](O)CC(=O)[C@@H]1CCCCCCC(=O)O [PGE1, (11α,13E,15S)-11,15-Dihydroxy-9-osoprost-13-en-1-oic acid] |  | without any problems | lack of statistically significant results |
| CC(=O)Oc1ccccc1C(=O)O [aspirin] | cause the mask of the damaged macular area to appear colored, such as bright red, can cause misty vision |  |  |
| COc1ccc2cc([C@H](C)C(=O)O)ccc2c1 [naproxen sodium] | cause the mask of the damaged macular area to appear colored, such as bright red, can cause misty vision |  |  |
